Patent publication US20070059294A1, “Therapeutiv preparation for hematopoietic disease” (priority 2003, published 2007)

Key:
Format in all cases: cell-based, mouse
wild-type MEFs = experiment: TUNEL apoptosis assay of MEFs treated with apoptotic stimuli; settings: low serum (1% FCS), anti-Fas 1 μg/ml 48 h, thapsigargin 1 μM 48 h, tunicamycin 10 ng/ml 48 h
Description: (§1) Apoptosis can be induced through several pathways. To identify the apoptotic pathway that describes Synoviolin involvement, mouse embryonic fibroblasts (MEFs) isolated from syno^−/− and wild-type mice were treated in vitro with the following four apoptotic stimuli, monoclonal anti-Fas antibodies (Abs), gamma-irradiation, tunicamycin (N-glycosylation inhibitor), and thapsigargin (Ca^2-ATPase inhibitor). Under control conditions, the proportion of syno^−/− MEF apoptotic cells was higher (16±4%) than MEF wild-type (6±2%, FIG. 5A). […] Moreover, the sensitivity against ER stress-induced agents was increased in a dose-dependent fashion (FIG. 5B).
(§2) Tissues were prepared as described above. Conditioned culture cells were fixed in 10% formalin for 15 minutes and attached to APS-coated slide glasses. These specimens were subjected to TUNEL assay. TUNEL assay was performed according to the protocol provided by the manufacturer (Apoptosis in situ detection kit; Wako, Osaka, Japan).
(§3) MEFs were isolated from E10.5 embryos of syno^−/− and wild-type mice by trypsin digestion after removal of the head and internal organs. Isolated cells were cultured in Dulbecco's modified Eagle's medium containing 20% fetal calf serum (FCS).
(§4) (A) MEFs derived from syno^+/+ and syno^−/− mice were treated with various apoptotic stimuli, including anti-Fas monoclonal antibodies (1μg/ml for 48 hours), X-irradiation (6 Gy for 72 hours), thapsigargin (1 μM for 48 hours) and tunicamycin (10 ng/ml for 48 hours), or untreated (−), in low serum (1%FCS) medium. Apoptotic cells were detected by TUNEL analysis. (B) syno^+/+ and syno^−/− MEFs were treated with indicated dose of stimuli. Apoptosis was measured by quantitation of DNA fragmentation using the cell death detection ELISA method (Boehringer Mannheim). *p<0.01. The number of apoptotic syno^−/− MEFs was higher in cultures treated with thapsigargin and tunicamycin compared with the respective syno^+/+ MEFs. (C) syno^+/+ and syno^−/− MEFs were infected with adenovirus vector (100 moi) carrying LacZ(−) or synoviolin gene(+), then treated with the same aforementioned agents. In syno^−/− MEFs, ER-stress induced apoptosis was rescued by infection with synoviolin.

syno^−/− MEFs [1] = experiment: as above; settings: thapsigargin 1 μM 48 h, tunicamycin 10 ng/ml 48 h; for proportion of apoptotic (TUNEL-positive) cells: syno^−/− MEFs, low serum (1% FCS), anti-Fas 1 μg/ml 48 h
Description: as §1, §2, §3, §4

syno^−/− MEFs [2] = experiment: DNA fragmentation, cell death detection ELISA; settings: indicated doses of stimuli, FIG. 5B, p<0.01
Description: as §4

| Molecule | proportion of apoptotic (TUNEL-positive) cells (wild-type MEFs) | proportion of apoptotic (TUNEL-positive) cells (syno^−/− MEFs [1]) | increase in number of TUNEL-positive syno^−/− MEFs compared with wild-type MEFs (syno^−/− MEFs [1]) | number of apoptotic syno^−/− MEFs compared with the respective syno^+/+ MEFs (syno^−/− MEFs [2]) |
| --- | --- | --- | --- | --- |
| C/C=C(/C)C(=O)O[C@H]1C(C)=C2[C@H]([C@@H]1OC(=O)CCCCCCC)[C@@](C)(OC(C)=O)C[C@H](OC(=O)CCC)[C@@]1(O)[C@H]2OC(=O)[C@@]1(C)O [thapsigargin] | 38±7% | 90±1% | 2.4 fold | higher |
| tunicamycin | 33±7% | 56±3% | 1.7 fold | higher |
